Legend:
GluA1i S743A = biological target: T1, GluA1i S743A (Homo sapiens, UniProt P42261, S743A); assay: Ca2+ influx assay in CHO cells expressing GluA1i S743A; assay type: cell-based; conditions: at each concentration of glutamate tested (0, 0.3 μM, 1 μM, 3 mM)
T1 construct: expressed in transfected cells; host or cells: CHO cells, transient electroporation
Experimental: Ca^2+ influx assays using human GluA1/flip and human stargazin co-expressing CHO cells plated at 3 × 10^4 cells/well in 96-well Black Clear plates (Corning Incorporated, Corning, NY) were performed as previously described, with some modifications. For evaluation of the species difference, rat GluA1/flip expressing CHO cells were plated. For mutant channels, the human GluA1i S743A mutant was generated using the In-Fusion HD Cloning Kit (Takara Bio Inc., Kusatsu, Japan) according to the manufacturer's protocol and transiently introduced to CHO cells by Gene Pulser II Electroporation System (Bio-Rad Laboratories, Inc., Hercules, CA). Relative increases of intracellular Ca^2+ levels were monitored for 3 min with a fluorometric imaging plate reader (CellLux, Perkin Elmer Life and Analytical Sciences, Inc., Shelton, CT). […]
Human GluA1/flip and human stargazin co-expressing CHO cells were plated at 3×10^4 cells/well in 96-well Black Clear plate (Corning Incorporated, Corning, NY). […] Relative increases of intracellular Ca^2+ levels by compounds in the presence and absence of 3 mM L-glutamate were monitored for 3 min by fluorometric imaging plate reader (CellLux, Perkin Elmer Life and Analytical Sciences, Inc., Shelton, CT). Activity of compound was defined as integration value of fluorescence value of each detection point. […] EC50 values were calculated by logistic regression analysis.

BDNF protein levels = assay: BDNF production in primary neurons; assay type: cell-based, rat; conditions: 24 h
Experimental: BDNF production in primary neurons was measured as previously described. Primary cultures of hippocampal neuronal cells at a density of 5 × 10^4 cells/well plated on poly-L-lysine coated 96-well plates (Sumitomo Bakelite) were treated with compounds in the presence or absence of AMPA (1 μM) and cultured in a humidified CO2 incubator with 5% CO2 at 37 °C for 24 h. The cells were washed once using phosphate buffered saline and were collected using 60 μL of lysis buffer (20 mM Tris-HCl at pH 8.0, 137 mM NaCl, 10% glycerol, 1% NP-40, 1% protease inhibitor cocktail [Sigma-Aldrich, St. Louis, MO]). Concentrations of BDNF protein were measured using BDNF ELISA Kits (Promega, Fitchburg, WI).
Primary cultures of hippocampal neuronal cells were prepared from fetal Sprague-Dawley rats at 19 days of gestation. Rat embryos were decapitated and their whole brains were isolated. Hippocampi were dissected in ice-cold Hanks' Balanced Salt Solutions (HBSS) under a microscope and then dispersed into cells using a neural cell dispersion kit (Sumitomo Bakelite Co., Ltd., Tokyo, Japan). The dissociated cells were suspended in Neurobasal medium containing B27 supplement (Thermo Fisher Scientific Inc.), 2 mM L-glutamine (Lonza, Basel, Switzerland), 100 U/mL penicillin (Lonza), 100 μg/mL streptomycin (Lonza) and 20 μg/mL gentamicin sulfate (Lonza). […]

rats = assay: Evaluation of convulsion; assay type: in vivo, rat; conditions: 100 mg/kg, p.o., 4 h after dosing
Experimental: The data were extracted from the studies conducted in accordance with the Good Laboratory Practice Regulation. […] The dose levels in the first study and second study were set at "100, 15 and 5 mg/kg, p.o." and "50, 15 and 5 mg/kg, p.o.", respectively. The dosing suspensions were administered into the stomach via a catheter in the morning at the dose volume of 5 mL/kg. Cage side observations to confirm tonic or […] convulsions were conducted before and at 1, 2, 4, 8 and 24 h after dosing in the first study and before and at 1, 4 and 24 h after dosing in the second study.

T1 sequence (P42261 19-906 isoform P42261-2 S743A limits assumed): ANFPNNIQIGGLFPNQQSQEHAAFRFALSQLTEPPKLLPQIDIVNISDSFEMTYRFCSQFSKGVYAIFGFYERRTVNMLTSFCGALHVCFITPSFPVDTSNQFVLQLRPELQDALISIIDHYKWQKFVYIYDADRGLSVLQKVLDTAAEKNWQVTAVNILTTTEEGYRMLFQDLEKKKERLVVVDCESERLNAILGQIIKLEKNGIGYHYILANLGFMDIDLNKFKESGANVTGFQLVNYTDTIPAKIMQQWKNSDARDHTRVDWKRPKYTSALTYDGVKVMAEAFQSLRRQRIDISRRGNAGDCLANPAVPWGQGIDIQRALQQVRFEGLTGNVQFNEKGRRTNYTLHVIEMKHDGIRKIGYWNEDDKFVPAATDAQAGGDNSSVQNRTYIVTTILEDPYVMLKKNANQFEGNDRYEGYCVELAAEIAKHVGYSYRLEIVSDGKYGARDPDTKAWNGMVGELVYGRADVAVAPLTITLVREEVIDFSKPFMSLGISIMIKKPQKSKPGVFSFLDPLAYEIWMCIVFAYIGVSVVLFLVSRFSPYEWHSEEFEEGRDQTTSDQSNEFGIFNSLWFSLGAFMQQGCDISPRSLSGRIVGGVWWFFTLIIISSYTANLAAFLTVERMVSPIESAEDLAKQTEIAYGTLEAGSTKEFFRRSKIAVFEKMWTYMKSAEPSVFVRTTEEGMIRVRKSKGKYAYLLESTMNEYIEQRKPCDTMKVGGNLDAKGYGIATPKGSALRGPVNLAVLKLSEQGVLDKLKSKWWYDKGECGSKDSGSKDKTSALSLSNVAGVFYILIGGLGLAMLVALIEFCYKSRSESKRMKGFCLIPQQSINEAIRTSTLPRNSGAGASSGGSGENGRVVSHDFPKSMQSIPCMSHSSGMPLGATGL
T1 sequence (Q9Y698 whole entry partner): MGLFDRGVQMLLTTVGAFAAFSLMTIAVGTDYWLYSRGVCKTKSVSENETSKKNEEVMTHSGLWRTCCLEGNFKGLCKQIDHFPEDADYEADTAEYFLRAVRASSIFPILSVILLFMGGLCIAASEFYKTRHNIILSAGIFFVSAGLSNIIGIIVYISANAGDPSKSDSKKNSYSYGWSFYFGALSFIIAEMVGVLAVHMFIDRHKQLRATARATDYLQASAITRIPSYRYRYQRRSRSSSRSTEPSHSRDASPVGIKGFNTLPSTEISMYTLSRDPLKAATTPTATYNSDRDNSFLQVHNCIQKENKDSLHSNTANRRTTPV

For `CC1=CN2CCS(=O)(=O)N=C2C(c2ccc(OC3CCCCC3)cc2)=N1` [TAK-653, 9-[4-(Cyclohexyloxy)phenyl]-7-methyl-3,4-dihydropyrazino[2,1-c][1,2,4]thiadiazine 2,2-dioxide], the “Maximum responses in S743A GluA1i versus wild-type GluA1i CHO cells” value (GluA1i S743A) was “higher”, the BDNF protein levels (BDNF protein levels; compound alone at 1 μM) was “slightly increased” and the BDNF protein levels (BDNF protein levels; in the presence of AMPA (1 μM)) was “robustly increased”. The Convulsions (rats) was “chronic and tonic convulsions in 1 animal”.

From paper PMC8282797, “Strictly regulated agonist-dependent activation of AMPA-R is the key characteristic of TAK-653 for robust synaptic responses and cognitive improvement” (Scientific Reports, 2021)
